{"source": "patent US20040138316A1", "about": "(priority 2001, published 2004)", "key": {"parasites": {"tested_on": "parasites", "conditions": "prior art fumigants; cited from earlier work"}, "man": {"tested_on": "man", "conditions": "cited from earlier work; for toxicity for man: prior art fumigants"}, "insects": {"tested_on": "insects", "protocol": "(§1) Laboratory tests were carried out preliminarily both in a ventilated environment and a confined environment by means of treatments by contact or inhalation with 100% commercial n-Hexane, for the sake of brevity called hereinafter “Hexane” with reference to the performance of the practical experimental tests whose execution procedures follow."}, "mites": {"tested_on": "mites", "protocol": "as §1"}, "[1]": {"tested_on": "mites, larvae and adult forms of cheese fly", "protocol": "Subsequent tests were conducted in a closed chamber consisting of a box (70 cm×50 cm by 120 cm high) with polypropylene walls as this material is among those not attacked by Hexane such as other synthetic plastic materials among which polyethylene, polyester, polyethylene terephthalates in addition to aluminum, copper, carbon steel and stainless steel. […] On the bottom of this box was located a circular aluminum tank (dia. 22 cm×height 15 cm) on the bottom of which was arranged a copper coil in which was circulated hot liquid to heat to evaporation the Hexane fed into the tank. The material to be tested was placed in the box which was then closed hermetically.\nTests were performed with two different techniques, to wit, at reduced pressure and at atmospheric pressure.\nBoth by the reduced pressure technique and the atmospheric pressure technique quantities of Hexane variable from 50 ml to 800 ml were fed through a second tap having in it a silicon tube drawing from the bottom of the aluminum tank. By circulating hot liquid in the heating coil the Hexane present in liquid phase in the tank was held at a temperature of 70° C. to 75° C. for the entire period of experimentation in order to achieve complete evaporation of the Hexane. A blower was placed on the bottom of the box for homogeneous distribution of the Hexane vapors in the treatment environment.\nThe temperature in the box during all the tests and as a function of the material to be treated (biological or not), was included in the range 5° C. to 75° C. The duration of the treatment was between 1 and 72 hours for both procedures (atmospheric pressure or reduced pressure). In the reduced-pressure tests the pressure was held in a range of 0.5N/cm2 to 5N/cm2.\nAt the end of treatment time the box was reopened and the Hexane vapors allowed to free themselves outward.\n(§2) Arthropods were introduced both on nonbiological supports such as glass, printed paper, differently colored fabrics (cotton, silk, linen, skin, wool and synthetic) and on biological materials such as ham, hard wheat pasta and hard crust cheeses. […] Also treated was biological material infested by mites, larvae and adult forms of cheese fly and Galleria mellonella using the entire set of tests described above."}, "[2]": {"conditions": "treated products", "description": "as §2"}}, "data": [{"smiles": "S=C=S", "note": "[carbon sulfide]", "values": [{"measurement": "insecticidal / parasiticidal effectiveness", "setting": "parasites", "result": "high insecticidal effectiveness"}, {"measurement": "toxicity for man", "setting": "man", "result": "high toxicity"}]}, {"smiles": "CBr", "note": "[Methyl bromide]", "values": [{"measurement": "toxicity for man", "setting": "man", "result": "very poisonous"}]}, {"smiles": "ClC(Cl)(Cl)Cl", "note": "[Carbon tetrachloride]", "values": [{"measurement": "insecticidal / parasiticidal effectiveness", "setting": "parasites", "result": "slight parasiticidal power"}, {"measurement": "toxicity for man", "setting": "man", "result": "less toxic than carbon sulfide"}]}, {"smiles": "C1CO1", "note": "[Ethylene oxide]", "values": [{"measurement": "toxicity for man", "setting": "man", "result": "highly toxic"}]}, {"smiles": "CCCCCC", "note": "[Hexane, n-Hexane]", "values": [{"measurement": "abatement power on flies, mosquitoes, cockroaches, corrodentia, thysanura", "setting": "insects; contact", "result": "high abatement power"}, {"measurement": "toxic effect on insects by contact", "setting": "insects; ventilated environment", "result": "significant toxic effect"}, {"measurement": "mites dead 15 minutes after treatment", "setting": "mites; Petri capsule, treatments of 15 minutes to two hours", "result": "all the mites present"}, {"measurement": "toxic activity on arthropods by inhalation", "setting": "mites; Petri capsule, verifiable after only a few minutes treatment", "result": "strong toxic activity"}, {"measurement": "arthropods returned to life within 15 days", "setting": "mites; returned to optimal conditions 18-20 °C, 80% RH after treatment", "result": "none of them returned to life"}, {"measurement": "toxic effect on eggs (hatching)", "setting": "mites; treatment for longer periods of time", "result": "strong hatching reduction"}, {"measurement": "toxic effect on mites by contact", "setting": "mites; ventilated environment", "result": "weak, temporary toxic effect"}, {"measurement": "effect on mites and insects infesting cheese products, mattresses, cushions, sheets, carpet, drapes", "setting": "[1]; Hexane vapors, closed chamber", "result": "same result"}, {"measurement": "effect on parasites infesting ham and dressed pork products", "setting": "[1]; after 2 hours exposure to Hexane vapors, mites, larvae and adult forms of cheese fly", "result": "desired effect on nearly all parasites"}, {"measurement": "reclamation of the product (ham, dressed pork products)", "setting": "[1]; after 48 hours of treatment", "result": "complete reclamation"}, {"measurement": "outcome of closed chamber tests compared with Petri capsule", "setting": "[1]; approximately 720 g per m3 of air, up to 72 hours, surrounding temperature, atmospheric pressure", "result": "confirmed the results obtained in Petri capsule"}, {"measurement": "concentration at which parasiticidal treatment is already considerably effective", "setting": "[1]; inhalation", "result": "250 g per cubic meter of air"}, {"measurement": "toxicity index for man following contact", "setting": "man; contact", "result": "low toxicity index"}, {"measurement": "acute toxicity index for man by inhalation", "setting": "man; inhalation", "result": "high acute toxicity index"}, {"measurement": "accumulation of toxic substances after treatment", "setting": "[2]", "result": "no accumulation of toxic substances"}]}]}
